Entries after “also recorded” stand apart in the source; their conditions may differ. Bridge positions count the residues as written; N and C are the ends. Ends that are not written are not given here.
How the values were obtained:
hKV1.3 = format: cell-based, human
Description: (§1) CHO cells (ATCC) were transiently transfected with plasmids encoding hKV1.1, hKV1.2, hKV10.1, hKCa3.1, hTRPA1, or hNaV1.7 using Lipofectamine 2000 (Invitrogen, Carlsbad, CA) following the manufacturer’s protocol, then cultured under standard conditions. The cells were co-transfected with a plasmid encoding green fluorescent protein (GFP) at a molar ratio of 10:1 except for hKV1.1, hKV1.2, and hKCa3.1 for which GFP-tagged ion channel vectors were used. Currents were recorded 24–36 h after transfection. […] HEK 293 cells stably expressing the hKv11.1 channel (hERG, hKCNH2 gene, a kind gift from H. Wulff, University of California, Davis, CA) and mKCa1.1 channel (BKCa, hKCNMA1, a kind gift from C. Beeton, Baylor College of Medicine, Houston, TX) were used. hTRPV1 channels were expressed in a stable manner in CHO cells. Transfected cells were washed twice with 2 mL of ECS (see below) and re-plated onto 35-mm polystyrene cell culture dishes (Cellstar, Greiner Bio-One). hKV1.3 currents were recorded from activated peripheral blood mononuclear cells (PBMCs, see below) 3–4 days after activation. Human veinous blood was obtained from anonymised healthy donors. PBMCs were isolated using Histopaque1077 (Sigma-Aldrich Hungary, Budapest, Hungary) density gradient centrifugation. Cells obtained were resuspended in RPMI 1640 medium containing 10% foetal calf serum (Sigma-Aldrich Hungary, Budapest, Hungary), 100 μg/mL penicillin, 100 μg/mL streptomycin, and 2 mM L-glutamine, seeded in a 24-well culture plate at a density of 5–6 × 10^5 cells/mL, and grown in a 5% CO2 incubator at 37 °C for 3–5 days. […]
(§2) Conventional whole-cell patch-clamp electrophysiology was used to record ionic currents. […] Data were analysed using Prism 8 (GraphPad, CA, USA) and ClampFit 10.5 software (Molecular Devices Inc., Sunnyvale, CA). […] For hKCa3.1, hTRPA1 and hTRPV1, the reversal potential for K^+ was determined and only those currents were analysed for which the reversal potential fell into the range of the theoretical reversal potential ± 5 mV (− 86.5 ± 5 mV for KCa3.1, and 0 ± 5 mV for hTRPA1 and hTRPV1).

hKV10.1 = test: Whole-cell patch-clamp, hKV10.1 in transiently transfected CHO cells; format: cell-based, human
Description: (§3) CHO and human embryonic kidney (HEK 293) cells were grown in DMEM-high glucose supplemented with 10% FBS, 2 mM L-glutamine, 100 U/mL penicillin-g, and 100 μg/mL streptomycin (Invitrogen) at 37 °C in a 5% CO2 and 95% air humidified atmosphere. Cells were passaged twice per week following a 5-min incubation in PBS containing 0.2 g/L EDTA (Invitrogen, Carlsbad, CA).
as §1, with “donors.” for “donors. PBMCs were isolated using Histopaque1077 (Sigma-Aldrich Hungary, Budapest, Hungary) density gradient centrifugation. Cells obtained were resuspended in RPMI 1640 medium containing 10% foetal calf serum (Sigma-Aldrich Hungary, Budapest, Hungary), 100 μg/mL penicillin, 100 μg/mL streptomycin, and 2 mM L-glutamine, seeded in a 24-well culture plate at a density of 5–6 × 10^5 cells/mL, and grown in a 5% CO2 incubator at 37 °C for 3–5 days.”
as §2

[1] = tested on: hKV11.1 channel (hERG, hKCNH2 gene); test: Whole-cell patch-clamp, hKV11.1 (hERG) stably expressed in HEK 293 cells; format: cell-based, human
Description: as §3
(§4) CHO cells (ATCC) were transiently transfected with plasmids encoding hKV1.1, hKV1.2, hKV10.1, hKCa3.1, hTRPA1, or hNaV1.7 using Lipofectamine 2000 (Invitrogen, Carlsbad, CA) following the manufacturer’s protocol, then cultured under standard conditions. The cells were co-transfected with a plasmid encoding green fluorescent protein (GFP) at a molar ratio of 10:1 except for hKV1.1, hKV1.2, and hKCa3.1 for which GFP-tagged ion channel vectors were used. Currents were recorded 24–36 h after transfection. […] Transfected cells were washed twice with 2 mL of ECS (see below) and re-plated onto 35-mm polystyrene cell culture dishes (Cellstar, Greiner Bio-One). hKV1.3 currents were recorded from activated peripheral blood mononuclear cells (PBMCs, see below) 3–4 days after activation. […]
(§5) Conventional whole-cell patch-clamp electrophysiology was used to record ionic currents. […] Data were analysed using Prism 8 (GraphPad, CA, USA) and ClampFit 10.5 software (Molecular Devices Inc., Sunnyvale, CA). […]

hKCa3.1 = test: Whole-cell patch-clamp, hKCa3.1 in transiently transfected CHO cells; format: cell-based, human
Description: as §3, §4, §5

hNaV1.7 = test: Whole-cell patch-clamp, hNaV1.7 in transiently transfected CHO cells; format: cell-based, human
Description: as §3, §4, §5

Drosophila melanogaster = test: Injection activity assay in Drosophila melanogaster; format: in vivo; conditions: for flies dead / flies paralysed: n = 8; for number of flies dead / number of flies paralysed: of 8 flies
Description: The activity of the recombinant SA8 peptide in Drosophila melanogaster was assessed using an injection activity assay. The mass of female D. melanogaster used for this experiment ranged from 0.8 to 1.1 mg. Eight D. melanogaster were used as an injection control group and administered 50 nL of water. Five doses of SA8 (0.00005, 0.0005, 0.005, 0.05 and 0.5 µg per fly; 50 nL) were each administered to eight D. melanogaster (n total = 40), with observations of paralysis and mortality made at 2 and 24 h post-injection (Additional file 14: File S6). Dose–response data were analysed as described previously.

Sequence: GYGKGRPGCYNHYDESICGGVIKDEHCKAGRGSRMGKFALKNCQFQCGLC (disulfide 9-47, 18-50, 27-43) [SA8]
- RCF_mean (remaining current fraction, I/I0) (hKV1.3; Kv1.3, 100 nM SA8, mean, n = 3, SEM 0.00826878): 1.03
- effect on current, in words (hKV1.3; hKV1.3, activated PBMCs, 100 nM SA8): no effect; also recorded: did not inhibit
- RCF_mean (remaining current fraction, I/I0) (hKV10.1; Kv10.1, 1000 nM SA8, mean, n = 4, SEM 0.00577385): 0.9796
- effect on current, in words (hKV10.1; hKV10.1, CHO cells, 1 µM SA8): no effect; also recorded: did not inhibit
- RCF_mean (remaining current fraction, I/I0) ([1]; Kv11.1, 100 nM SA8, mean, n = 5, SEM 0.0157239): 1.029
- effect on current, in words ([1]; hKV11.1 (hERG), HEK 293, 100 nM SA8): no effect; also recorded: did not inhibit
- RCF_mean (remaining current fraction, I/I0) (hKCa3.1; KCa3.1, 100 nM SA8, mean, n = 6, SEM 0.0170688): 0.9712
- effect on current, in words (hKCa3.1; hKCa3.1, CHO cells, 100 nM SA8): no effect; also recorded: did not inhibit
- RCF_mean (remaining current fraction, I/I0) (hNaV1.7; Nav1.7, 1000 nM SA8, mean, n = 5, SEM 0.022988): 1.02
- effect on current, in words (hNaV1.7; hNaV1.7, CHO cells, 1 µM SA8): no effect; also recorded: did not inhibit
- flies dead (Drosophila melanogaster; 5e-5 µg/fly, 2 h): 0.0%
- flies paralysed (Drosophila melanogaster; 5e-5 µg/fly, 2 h): 0.0%
- number of flies dead (Drosophila melanogaster; 5e-5 µg/fly, 2 h): 0
- number of flies paralysed (Drosophila melanogaster; 5e-5 µg/fly, 2 h): 0
- flies dead (Drosophila melanogaster; 5e-5 µg/fly, 24 h): 0.0%
- flies paralysed (Drosophila melanogaster; 5e-5 µg/fly, 24 h): 0.0%
- number of flies dead (Drosophila melanogaster; 5e-5 µg/fly, 24 h): 0
- number of flies paralysed (Drosophila melanogaster; 5e-5 µg/fly, 24 h): 0
- flies dead (Drosophila melanogaster; 0.0005 µg/fly, 2 h): 0.0%
- flies paralysed (Drosophila melanogaster; 0.0005 µg/fly, 2 h): 0.0%
- number of flies dead (Drosophila melanogaster; 0.0005 µg/fly, 2 h): 0
- number of flies paralysed (Drosophila melanogaster; 0.0005 µg/fly, 2 h): 0
- flies dead (Drosophila melanogaster; 0.0005 µg/fly, 24 h): 0.0%
- flies paralysed (Drosophila melanogaster; 0.0005 µg/fly, 24 h): 0.0%
- number of flies dead (Drosophila melanogaster; 0.0005 µg/fly, 24 h): 0
- number of flies paralysed (Drosophila melanogaster; 0.0005 µg/fly, 24 h): 0
- flies dead (Drosophila melanogaster; 0.005 µg/fly, 2 h): 0.0%
- flies paralysed (Drosophila melanogaster; 0.005 µg/fly, 2 h): 0.0%
- number of flies dead (Drosophila melanogaster; 0.005 µg/fly, 2 h): 0
- number of flies paralysed (Drosophila melanogaster; 0.005 µg/fly, 2 h): 0
- flies dead (Drosophila melanogaster; 0.005 µg/fly, 24 h): 0.0%
- flies paralysed (Drosophila melanogaster; 0.005 µg/fly, 24 h): 0.0%
- number of flies dead (Drosophila melanogaster; 0.005 µg/fly, 24 h): 0
- number of flies paralysed (Drosophila melanogaster; 0.005 µg/fly, 24 h): 0
- flies dead (Drosophila melanogaster; 0.05 µg/fly, 2 h): 0.0%
- flies paralysed (Drosophila melanogaster; 0.05 µg/fly, 2 h): 0.0%
- number of flies dead (Drosophila melanogaster; 0.05 µg/fly, 2 h): 0
- number of flies paralysed (Drosophila melanogaster; 0.05 µg/fly, 2 h): 0
- flies dead (Drosophila melanogaster; 0.05 µg/fly, 24 h): 0.0%
- flies paralysed (Drosophila melanogaster; 0.05 µg/fly, 24 h): 0.0%
- number of flies dead (Drosophila melanogaster; 0.05 µg/fly, 24 h): 0
- number of flies paralysed (Drosophila melanogaster; 0.05 µg/fly, 24 h): 0
- paralysis or death within 24 h, in words (Drosophila melanogaster; 0.5 µg per fly, injected): did not result in paralysis or death
- flies dead (Drosophila melanogaster; 0.5 µg/fly, 2 h): 0.0%
- flies paralysed (Drosophila melanogaster; 0.5 µg/fly, 2 h): 0.0%
- number of flies dead (Drosophila melanogaster; 0.5 µg/fly, 2 h): 0
- number of flies paralysed (Drosophila melanogaster; 0.5 µg/fly, 2 h): 0
- flies dead (Drosophila melanogaster; 0.5 µg/fly, 24 h): 0.0%
- flies paralysed (Drosophila melanogaster; 0.5 µg/fly, 24 h): 0.0%
- number of flies dead (Drosophila melanogaster; 0.5 µg/fly, 24 h): 0
- number of flies paralysed (Drosophila melanogaster; 0.5 µg/fly, 24 h): 0
